Experiments:
[1] = target: Melanocortin receptor 4 (Homo sapiens, UniProt P32245); assay: Displacement of [125I]NDP-MSH from human recombinant MC4 receptor expressed in Sf9 cells
[2] = target: Melanocortin receptor 3 (Homo sapiens, UniProt P41968); assay: Displacement of [125I]NDP-MSH from human recombinant MC3 receptor expressed in Sf9 cells
[3] = target: Melanocyte-stimulating hormone receptor (Mus musculus, UniProt Q01727); assay: Displacement of [125I]NDP-MSH from MC1 receptor in mouse B16 cells; type: cell-based
Chain of Melanocyte-stimulating hormone receptor (Q01727 whole entry): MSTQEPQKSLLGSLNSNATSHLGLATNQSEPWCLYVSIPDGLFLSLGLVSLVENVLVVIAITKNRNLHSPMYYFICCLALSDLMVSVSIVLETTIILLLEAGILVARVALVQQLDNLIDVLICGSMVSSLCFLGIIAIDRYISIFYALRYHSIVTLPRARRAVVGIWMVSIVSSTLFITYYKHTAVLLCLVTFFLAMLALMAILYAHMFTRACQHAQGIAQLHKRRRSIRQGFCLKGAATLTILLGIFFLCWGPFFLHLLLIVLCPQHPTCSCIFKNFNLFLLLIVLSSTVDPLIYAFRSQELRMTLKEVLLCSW

[4] = target: Melanocortin receptor 5 (Homo sapiens, UniProt P33032); assay: Displacement of [125I]NDP-MSH from human recombinant MC5 receptor expressed in Sf9 cells
Chain of Melanocortin receptor 5 (P33032 whole entry): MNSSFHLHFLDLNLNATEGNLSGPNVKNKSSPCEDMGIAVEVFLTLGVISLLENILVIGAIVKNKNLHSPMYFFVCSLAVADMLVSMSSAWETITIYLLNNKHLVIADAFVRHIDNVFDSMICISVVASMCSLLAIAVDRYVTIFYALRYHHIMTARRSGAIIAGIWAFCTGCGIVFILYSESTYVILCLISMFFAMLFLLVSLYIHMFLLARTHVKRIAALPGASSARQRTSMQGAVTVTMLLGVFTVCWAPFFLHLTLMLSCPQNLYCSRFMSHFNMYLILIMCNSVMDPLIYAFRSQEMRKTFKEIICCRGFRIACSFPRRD

Chain of Melanocortin receptor 3 (P41968 whole entry): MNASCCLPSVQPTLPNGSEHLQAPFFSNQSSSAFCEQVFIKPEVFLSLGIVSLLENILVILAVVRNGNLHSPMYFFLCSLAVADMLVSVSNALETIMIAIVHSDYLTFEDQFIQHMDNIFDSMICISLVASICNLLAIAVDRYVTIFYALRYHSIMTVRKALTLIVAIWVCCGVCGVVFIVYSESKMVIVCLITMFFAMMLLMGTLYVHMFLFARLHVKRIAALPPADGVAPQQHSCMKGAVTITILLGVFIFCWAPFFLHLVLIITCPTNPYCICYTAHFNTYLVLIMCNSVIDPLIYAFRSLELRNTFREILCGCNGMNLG
Chain of Melanocortin receptor 4 (P32245 whole entry): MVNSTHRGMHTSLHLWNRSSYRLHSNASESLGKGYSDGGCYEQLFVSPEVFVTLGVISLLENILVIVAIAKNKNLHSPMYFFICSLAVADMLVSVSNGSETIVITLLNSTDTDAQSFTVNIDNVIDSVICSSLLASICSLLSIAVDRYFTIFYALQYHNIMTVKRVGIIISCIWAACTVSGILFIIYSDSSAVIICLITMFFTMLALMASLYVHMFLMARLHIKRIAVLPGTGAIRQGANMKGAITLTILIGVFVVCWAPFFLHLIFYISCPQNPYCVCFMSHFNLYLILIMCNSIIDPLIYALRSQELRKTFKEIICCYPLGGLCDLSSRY

Row | SMILES | Ki [1] | Ki [2] | Ki [3] | Ki [4]
1 | NC1CCC(CC2CCC(N(Cc3ccccn3)C(=O)CCCc3c[nH]c4ccccc34)CC2)CC1 (centres undefined) | 5.6 µM | 39 µM | 4.6 µM | 49 µM
2 | NCCCCCN(C(=O)Cc1c[nH]c2ccccc12)C1CCCCCC1 | 16 µM | 14 µM | 6 µM | 35 µM
3 | COc1cc(Br)c(/C=C/CN(C(=O)CCCc2c[nH]c3ccccc23)C2CCC(CC3CCC(N)CC3)CC2)cc1OC (centres undefined) | 3.2 µM | 14 µM | 2 µM | 266 µM
4 | N[C@@H]1CCCC[C@H]1N(C/C=C/c1ccccc1)C(=O)CCCc1c[nH]c2ccccc12 | 116 µM | 62 µM | 12 µM | 555 µM
5 | NCCCCCCCN(C/C(Cl)=C/c1ccccc1)C(=O)CCCc1c[nH]c2ccccc12 | 7.4 µM | 42 µM | 5 µM | 29 µM
6 | C/C(=C/c1ccccc1)CN(CCCCCN)C(=O)CCCc1c[nH]c2ccccc12 | 4.7 µM | 22 µM | 3.5 µM | 8.7 µM
7 | NC1CCC(CC2CCC(N(Cc3c(Cl)cccc3Cl)C(=O)CCCc3c(Cc4ccc(O)cc4)[nH]c4ccccc34)CC2)CC1 (centres undefined) | 5.3 µM | 27 µM | 1.6 µM | 22 µM
8 | NCCCN1CCN(CCCN(C/C(Cl)=C/c2ccccc2)C(=O)CCCc2c[nH]c3ccccc23)CC1 | 9.2 µM | 78 µM | 4.6 µM | 6.6 µM
9 | NCCCCCCN(Cc1ccccc1)C(=O)CCCc1c(Cc2ccc(O)cc2)[nH]c2ccccc12 | 3.7 µM | 36 µM | 2.3 µM | 2.1 µM
10 | NCCN(C(=O)[C@H](N)Cc1ccc(Cl)cc1)C1CCC2(CCCCC2)CC1 | 2.4 µM | 1.7 µM | 3.7 µM | 3.2 µM
11 | N=C(N)NCCCCN(Cc1ccc2ccccc2c1)C(=O)CCCc1c[nH]c2ccccc12 | 96 µM | 134 µM | 3.2 µM | 11 µM
12 | NCCCCN(Cc1ccccc1)C(=O)CCCc1c(Cc2ccc(O)cc2)[nH]c2ccccc12 | 6.2 µM | 16 µM | 7.7 µM | 4.6 µM
13 | NC1CCC(CC2CCC(N(Cc3ccccc3)C(=O)CCCc3c[nH]c4ccccc34)CC2)CC1 (stereo in doubt; 10d-40-8) | 8.3 µM | 9.4 µM | 0.42 µM | 18 µM
14 | NCCCCCN(Cc1ccccc1)C(=O)[C@@H](N)Cc1c[nH]c2ccccc12 | 44 µM | 43 µM | 34 µM | 54 µM
15 | NC1CCC(CC2CCC(N(Cc3ccccc3)C(=O)CCCc3c[nH]c4ccccc34)CC2)CC1 (stereo in doubt) | 2.6 µM | 15 µM | 1.4 µM | 105 µM
16 | NCCCN(C/C=C/c1ccccc1)C(=O)Cc1ccc2ccccc2c1 | 6.4 µM | 33 µM | 2.5 µM | 10 µM
17 | NCCCCCN(Cc1ccccc1)C(=O)CCCc1c[nH]c2ccccc12 | 6.4 µM | 15 µM | 3.2 µM | 4.6 µM
18 | NC1CCC(CC2CCC(N(C(=O)CCCc3c[nH]c4ccccc34)C3CCc4ccccc4C3)CC2)CC1 (centres undefined) | 12 µM | 278 µM | 4.5 µM | 44 µM
19 | NCCCCCCCN(Cc1ccccc1)C(=O)CCCc1c[nH]c2ccccc12 | 3.8 µM | 28 µM | 4 µM | 3.2 µM
20 | NC1CCC(CC2CCC(N(Cc3ccccc3Cl)C(=O)CCCc3c(Cc4ccc(O)cc4)[nH]c4ccccc34)CC2)CC1 (centres undefined) | 14 µM | 26 µM | 6.6 µM | 97 µM
21 | NCCCCCN(Cc1ccccc1)C(=O)[C@@H](N)Cc1ccc2ccccc2c1 | 21 µM | 39 µM | 10 µM | 34 µM
22 | NC1CCC(CC2CCC(N(CCc3c(F)cccc3Cl)C(=O)CCCc3c[nH]c4ccccc34)CC2)CC1 (centres undefined) | 2.3 µM | 24 µM | 2.1 µM | 5.2 µM
23 | NC(N)=NCCCN(Cc1ccc2ccccc2c1)C(=O)CCCc1c[nH]c2ccccc12 | 6 µM | 7.5 µM | 1.9 µM | 6.1 µM
24 | NCCCCCN(Cc1ccccc1)C(=O)CCCc1c(Cc2ccc(O)cc2)[nH]c2ccccc12 | 5 µM | 47 µM | 2 µM | 5.1 µM
25 | COc1ccccc1/C=C/CN(C(=O)CCCc1c[nH]c2ccccc12)C1CCC(CC2CCC(N)CC2)CC1 (stereo in doubt; form 2) | 4.1 µM | 31 µM | 1.6 µM | 5 µM
26 | NC1CCC(CC2CCC(N(C/C(Cl)=C/c3ccccc3)C(=O)COc3ccc4ccccc4c3)CC2)CC1 (stereo in doubt; form 8) | 3.7 µM | 62 µM | 1.6 µM | 42 µM
